# Laboratory results reported in patent US9457044B2, “Methods and compositions for wound healing” (CoDa Therapeutics, Inc., priority 2006, dated 2016).
# Experiments:
# Format in all cases: in vivo, mice
# BrdU-positive cells = assay: BrdU labeling of proliferating cells at wound sites
# Experimental: (§1) Male, 8 week old, ICR mice were used in the following experiments. All the mice were kept under specific pathogen-free conditions in an environmentally controlled clean room at University College London and all the experiments were carried out under UK Home Office regulations. Mice were anaesthetized by halothane inhalation. Four full-thickness excisional wounds of 6 mm diameter were made on the shaved back on either side of the dorsal midline with a 6 mm biopsy punch (Kai Industries). To each pair of wounds a single topical application of 50 μl of 1 μM Cx43 as ODN (SEQ. ID No. 2) (Sigma-Genosys) in 30% Pluronic F-127 gel (Sigma-Aldrich), chilled on ice, was made to one wound, and an identical application of 1 μM sense control sODNs was made to the other. […] R. and Becker, D. L. (2003). Targeting connexin 43 expression accelerates the rate of wound repair. Curr Biol 13, 1697-703). Each wound region was digitally photographed at the indicated time intervals, and the areas of the wounds were calculated. All wound areas were expressed as percentages of the initial wound areas. In some series of experiments, wounds and their surrounding area, including the scab and epithelial margins, were harvested with an 8 mm biopsy punch (Kai Industries) at the indicated time intervals after mice were killed with an overdose of chloroform. A minimum of eight mice were used for each time point examined.
# In another experiment, wounded mice were injected intraperitoneally with 1 ml of BrdU (Sigma) in PBS solution (1 mg/ml) 2 hours before harvesting on days 1, 2, and 7. Wound tissues were fixed in 4% formaldehyde buffered with PBS, and embedded in paraffin. Deparaffinized sections (6 μm thick) were treated with a HistoMouse™-Plus Kit (ZYMED Laboratories, Inc) to reduce background signals according to manufacturer's instructions. […]
# A treatment-blinded observer counted MPO-positive neutrophils and F4/80-positive macrophages in the wound bed (defined as the area surrounded by unwounded skin, fascia, regenerated epidermis, and eschar) in 3 random high-power fields of 0.332 mm^2. BrdU-positive cells in the wound margin and the nascent epidermis regions of each immunohistochemically stained section were counted as described previously and expressed per […] of epidermis (Mori, R., Kondo, T., Nishie, T., Ohshima, T. and Asano, M. (2004). Impairment of skin wound healing in beta-1,4-galactosyltransferase-deficient mice with reduced leukocyte recruitment. Am J Pathol 164, 1303-14). Number of fibroblast like cells (phalloidin-positive cells with spindle-shape body) at the wound margin were counted in high-power fields also (each field was 0.332 mm^2). […] Images were made binary at a standard threshold and positive pixels were counted using Image J (NIH Image).
# Cx43 mRNA = assay: Real-Time PCR of Cx43 mRNA at skin wound sites
# Experimental: as §1
# Total RNA was extracted from skin wound samples using TRIzol Reagent (Invitrogen), according to the manufacturer's instructions. Ten micrograms of total RNA was reverse-transcribed into cDNA using the SuperScript First-Strand Synthesis System for RT-PCR (Invitrogen).
# Gene specific primers and probe were obtained as TaqMan® Gene Expression Assays (Applied Biosystems) for Cx43, Ccl2, Co1α1, TNFα and TGFβ1. The enzyme and buffer system was purchased as TaqMan® Universal PCR Master Mix (Applied Biosystems). Each sample was analyzed in duplicate. Amplification and real-time detection was performed in the DNA Engine Opticon®2 (MJ Research Inc.). […]
# TGF-β1 mRNA = assay: Real-Time PCR of TGF-β1 at wound sites
# Experimental: as §1, with “In some series of experiments, wounds and their surrounding area, including the scab and epithelial margins, were harvested with an 8 mm biopsy punch (Kai Industries) at the indicated time intervals after mice were killed with an overdose of chloroform. A minimum of eight mice were used for each time point examined.” left out
# (§2) Gene specific primers and probe were obtained as TaqMan® Gene Expression Assays (Applied Biosystems) for Cx43, Ccl2, Co1α1, TNFα and TGFβ1. […] Each sample was analyzed in duplicate. […]
# blood vessels = assay: Angiogenesis at wound sites (von Willebrand factor, CD31, isolectinB staining)
# Experimental: as §1
# Wound tissues were fixed in 4% formaldehyde buffered with PBS, and embedded in paraffin. Sections ([…] thick) were subjected to hematoxylin and eosin staining or immunostaining. Measurement of granulation tissue area in H&E was performed using Improvision Openlab™ 4.0.2 software (Improvision). For immunohistochemistry, deparaffinized sections were treated with endogenous peroxidase blocking reagent (Dako Cytomation A/S) and proteinase K (Dako Cytomation A/S) for 20 minutes and 6 minutes at room temperature, respectively. They were then incubated with rabbit antimyeloperoxidase (MPO) polyclonal antibody (NeoMarkers) diluted 1:200, rat anti-mouse F4/80 monoclonal antibody (mAb) (Abcom Limited) diluted 1:400 or rat antimouse CD31 (platelet endothelial cell adhesion molecule 1, PECAM-1) mAb (PharMingen) or rabbit anti-mouse TGF-β1 polyclonal antibody (Santa Cruz Biotechnology, Inc) both diluted 1:200 overnight at 4° C. after blocking with 15% skimmed milk for 1 hour at room temperature. In addition, some sections were reacted with phalloidin-tetramethylrhodamine B isothiocyanate (Sigma-Aldrich) diluted 1:500 for 1 hour at room temperature. The antibodies were appropriately diluted in Antibody Diluent with Background Reducing Components (Dako Cytomation A/S). The sections reacted with anti-MPO antibody and anti TGF-β1 antibody were stained with EnVision+™ (Dako Cytomation A/S) to enhance the signal, according to the manufacturer's instructions. The sections that had been reacted with anti-F4/80 and anti-CD31 antibodies were incubated with biotinylated rabbit anti-rat immunoglobulin (Dako Cytomation A/S) diluted 1:200 for 1 hour at 37° C. The signal was then enhanced using the Catalyzed Signal Amplification System® (Dako Cytomation A/S) according to the manufacturer's instructions. Thereafter, counterstaining was performed with methyl green (Dako Cytomation A/S) followed by MPO, TGF-β1, F4/80, and CD31 staining or 4′,6-diamidino-2-phenylindole (DAPI) followed by phalloidin staining. […]
# TNF-α mRNA = assay: Real-Time PCR of TNF-α at wound sites; conditions: day 7; P<0.05 versus control sODN
# Experimental: as §1, with “In some series of experiments, wounds and their surrounding area, including the scab and epithelial margins, were harvested with an 8 mm biopsy punch (Kai Industries) at the indicated time intervals after mice were killed with an overdose of chloroform. A minimum of eight mice were used for each time point examined.” left out
# as §2
sequence,measurement,setting,value
"GTAATTGCGGCAGGAGGAATTGTTTCTGTC (antisense GTAATTGCGGCAGGAGGAATTGTTTCTGTC; in Pluronic F-127 gel, further chemistry not given here) [Cx43 asODN]","keratinocyte proliferation in the epidermal wound margin, control versus treated",BrdU-positive cells; FIG. 2E,little difference
same,BrdU-positive cells in the dermal wound margin,BrdU-positive cells; FIG. 2G,slightly more cells
same,BrdU-positive cells in the nascent epidermis,BrdU-positive cells; after both 2 days and 7 days,significantly increased numbers
same,BrdU-positive cells in the granulation tissue,BrdU-positive cells; days 1 and 2,significantly more
same,expression of Cx43 mRNA relative to GAPDH,Cx43 mRNA; 7 days after the injury,4.6 units
same,reduction of Cx43 mRNA versus control sODN-treated wounds,"Cx43 mRNA; one day after injury, P<0.05",37%
same,expression of Cx43 mRNA relative to GAPDH,"Cx43 mRNA; one day after injury, single topical 50 μl of 1 μM in 30% Pluronic F-127 gel",2.95 units
same,expression of TGF-β1 mRNA versus control sODN-treated wounds,"TGF-β1 mRNA; day 2 after the injury, P<0.05",significantly increased
same,"expression of TGF-β1 mRNA, control versus treated wounds",TGF-β1 mRNA; days 1 and 7,no difference
same,blood vessel staining in granulation tissue,"blood vessels; 5 days, none in control wounds",staining was seen in the edges of the granulation tissue of all
same,"quantified blood vessel staining, treated versus controls","blood vessels; 7 days P=0.0019, 10 days P=0.015",significantly more staining in controls
same,"size of blood vessels and extent of staining, treated versus control",blood vessels; 14 days,very similar
same,wounds with fine blood vessels throughout the entire granulation tissue,blood vessels; day 7,five out of six
same,enhancement of the rate of wound maturation,"blood vessels; mouse, in vivo",2 to 3 days
same,expression level of TNF-α mRNA,TNF-α mRNA,significantly reduced
